The OPERA property sets (Mansouri et al. 2018)

SMILES	logP
CCN(CC)C(=O)c1ccccc1Cl	2.1
O=C(CC1CCCCC1)N1CCCCC1	3.2
Cc1ccc(C(=O)N(C)C)cc1	1.72
O=C(c1ccccc1Cl)N1CCCCC1	2.8
Cc1cccc(C(=O)N(C)C)c1	1.6
CCNC(=O)CC1CCCCC1	2.28
CCOc1ccccc1C(=O)N1CCCCC1	2.6
COc1ccc(C(=O)N2CCCCC2)cc1	2.4
O=C(Cc1ccccc1)N1CCCCC1	2.44
CN(C)C(=O)CC1CCCCC1	2.19
CCN(CC)C(=O)CC1CCCCC1	3.12
CC(C)N(C(=O)Cc1ccccc1)C(C)C	3.1
Cc1cccc(C(=O)N2CCCCC2)c1	2.6
Cc1ccc(C(=O)N(C(C)C)C(C)C)cc1	2.5
CN(C)C(=O)Cc1ccccc1	1.48
CCOc1ccccc1C(=O)N(C(C)C)C(C)C	3
CCNC(=O)Cc1ccccc1	1
CCNC(=O)c1ccc(C)cc1	1.38
Cc1ccc(C(=O)N2CCCCC2)cc1	2.8
COc1ccc(C(=O)N(C(C)C)C(C)C)cc1	2.8
Cc1cccc(C(=O)N(C(C)C)C(C)C)c1	3
CCN(CC)C(=O)Cc1ccccc1	2.4

Continued, values first:

logP	SMILES
2.4	CCNC(=O)c1ccccc1OCC
2.2	O=C(c1ccccc1)N1CCCCC1
1.54	CN(C)C(=O)c1ccccc1Cl
3	CC(C)N(C(=O)c1ccccc1Cl)C(C)C
1.32	CCNC(=O)c1cccc(C)c1
2.5	CCOc1ccccc1C(=O)N(CC)CC
2.5	CC(C)N(C(=O)c1ccccc1)C(C)C
2.38	CCN(CC)C(=O)c1ccc(C)cc1
1.14	CCNC(=O)c1ccc(OC)cc1
